The source made the active and inactive calls. The calls are words filed in the database; no cut-off is given here.
How the values were obtained:
[1] = system: Brassica rapa subsp. oleifera; experiment: Post-emergence herbicidal activity against one-leaf stage Brassica rapa subsp. oleifera under greenhouse condition at 300 g /ha measured after 24 days by spray method; assay type: functional; conditions: 576 h, read-out: GI
[2] = system: Brassica rapa subsp. oleifera; experiment: Post-emergence herbicidal activity against one-leaf stage Brassica rapa subsp. oleifera under greenhouse condition assessed as complete bleaching of leaves at 60 g /ha measured after 24 days by spray method; assay type: functional, organism-based
[3] = system: Amaranthus retroflexus; experiment: Post-emergence herbicidal activity against one-leaf stage Amaranthus retroflexus under greenhouse condition at 150 g /ha measured after 24 days by spray method; assay type: functional; conditions: 576 h, read-out: GI
[4] = system: Brassica rapa subsp. oleifera; experiment: Post-emergence herbicidal activity against one-leaf stage Brassica rapa subsp. oleifera under greenhouse condition assessed as complete bleaching of leaves at 600 g /ha measured after 24 days by spray method; assay type: functional, organism-based
[5] = system: Digitaria; experiment: Post-emergence herbicidal activity against one-leaf stage of Digitaria adscendens under greenhouse condition at 750 g /ha measured after 24 days by spray method; assay type: functional; conditions: in Digitaria adscendens, 576 h, read-out: GI
[6] = system: Brassica rapa subsp. oleifera; experiment: Post-emergence herbicidal activity against one-leaf stage Brassica rapa subsp. oleifera under greenhouse condition at 7.5 g /ha measured after 24 days by spray method; assay type: functional; conditions: 576 h, read-out: GI
[7] = system: Amaranthus retroflexus; experiment: Post-emergence herbicidal activity against one-leaf stage Amaranthus retroflexus under greenhouse condition assessed as complete bleaching of leaves at 30 g /ha measured after 24 days by spray method; assay type: functional, organism-based
[8] = system: Brassica rapa subsp. oleifera; experiment: Post-emergence herbicidal activity against one-leaf stage Brassica rapa subsp. oleifera under greenhouse condition assessed as complete bleaching of leaves at 30 g /ha measured after 24 days by spray method; assay type: functional, organism-based
[9] = system: Brassica rapa subsp. oleifera; experiment: Post-emergence herbicidal activity against one-leaf stage Brassica rapa subsp. oleifera under greenhouse condition at 75 g /ha measured after 24 days by spray method; assay type: functional; conditions: 576 h, read-out: GI
[10] = system: Amaranthus retroflexus; experiment: Post-emergence herbicidal activity against one-leaf stage of Amaranthus retroflexus under greenhouse condition at 750 g /ha measured after 24 days by spray method; assay type: functional; conditions: 576 h, read-out: GI
[11] = system: Spirodela polyrhiza; experiment: Bleaching herbicidal activity in Spirodela polyrhiza fronds cultured in compound-containing in medium assessed as chlorophyll inhibition at 10 ug/ml after 7 days; assay type: functional; conditions: 168 h
[12] = system: Brassica rapa subsp. oleifera; experiment: Post-emergence herbicidal activity against one-leaf stage Brassica rapa subsp. oleifera under greenhouse condition at 15 g /ha measured after 24 days by spray method; assay type: functional; conditions: 576 h, read-out: GI
[13] = system: Brassica rapa subsp. oleifera; experiment: Post-emergence herbicidal activity against one-leaf stage Brassica rapa subsp. oleifera under greenhouse condition at 150 g /ha measured after 24 days by spray method; assay type: functional; conditions: 576 h, read-out: GI
[14] = system: Digitaria; experiment: Pre-emergence herbicidal activity against Digitaria adscendens under greenhouse condition at 750 g /ha measured after 24 days by spray method; assay type: functional; conditions: in Digitaria adscendens, 576 h, read-out: GI
[15] = system: Brassica rapa subsp. oleifera; experiment: Post-emergence herbicidal activity against one-leaf stage Brassica rapa subsp. oleifera under greenhouse condition assessed as complete bleaching of leaves at 300 g /ha measured after 24 days by spray method; assay type: functional, organism-based
[16] = system: Amaranthus retroflexus; experiment: Post-emergence herbicidal activity against one-leaf stage Amaranthus retroflexus under greenhouse condition assessed as complete bleaching of leaves at 300 g /ha measured after 24 days by spray method; assay type: functional, organism-based
[17] = system: Echinochloa crus-galli; experiment: Pre-emergence herbicidal activity against Echinochloa crus-galli (barnyard grass) under greenhouse condition at 750 g /ha measured after 24 days by spray method; assay type: functional; conditions: 576 h, read-out: GI
[18] = system: Brassica rapa subsp. oleifera; experiment: Post-emergence herbicidal activity against one-leaf stage Brassica rapa subsp. oleifera under greenhouse condition at 30 g /ha measured after 24 days by spray method; assay type: functional; conditions: 576 h, read-out: GI
[19] = system: Amaranthus retroflexus; experiment: Post-emergence herbicidal activity against one-leaf stage Amaranthus retroflexus under greenhouse condition assessed as complete bleaching of leaves at 15 g /ha measured after 24 days by spray method; assay type: functional, organism-based
[20] = system: Amaranthus retroflexus; experiment: Post-emergence herbicidal activity against one-leaf stage Amaranthus retroflexus under greenhouse condition at 75 g /ha measured after 24 days by spray method; assay type: functional; conditions: 576 h, read-out: GI
[21] = system: Brassica rapa subsp. oleifera; experiment: Post-emergence herbicidal activity against one-leaf stage Brassica rapa subsp. oleifera under greenhouse condition at 60 g /ha measured after 24 days by spray method; assay type: functional; conditions: 576 h, read-out: GI
[22] = system: Brassica rapa subsp. oleifera; experiment: Post-emergence herbicidal activity against one-leaf stage Brassica rapa subsp. oleifera under greenhouse condition at 750 g /ha measured after 24 days by spray method; assay type: functional; conditions: 576 h, read-out: GI
[23] = system: Brassica rapa subsp. oleifera; experiment: Post-emergence herbicidal activity against one-leaf stage Brassica rapa subsp. oleifera under greenhouse condition assessed as complete bleaching of leaves at 7.5 g /ha measured after 24 days by spray method; assay type: functional, organism-based
[24] = system: Brassica rapa subsp. oleifera; experiment: Pre-emergence herbicidal activity against Brassica rapa subsp. oleifera under greenhouse condition at 750 g /ha measured after 24 days by spray method; assay type: functional; conditions: 576 h, read-out: GI
[25] = system: Brassica rapa subsp. oleifera; experiment: Post-emergence herbicidal activity against one-leaf stage Brassica rapa subsp. oleifera under greenhouse condition assessed as complete bleaching of leaves at 15 g /ha measured after 24 days by spray method; assay type: functional, organism-based
[26] = system: Amaranthus retroflexus; experiment: Post-emergence herbicidal activity against one-leaf stage Amaranthus retroflexus under greenhouse condition assessed as complete bleaching of leaves at 7.5 g /ha measured after 24 days by spray method; assay type: functional, organism-based
[27] = system: Amaranthus retroflexus; experiment: Post-emergence herbicidal activity against one-leaf stage Amaranthus retroflexus under greenhouse condition assessed as complete bleaching of leaves at 75 g /ha measured after 24 days by spray method; assay type: functional, organism-based
[28] = system: Amaranthus retroflexus; experiment: Post-emergence herbicidal activity against one-leaf stage Amaranthus retroflexus under greenhouse condition at 300 g /ha measured after 24 days by spray method; assay type: functional; conditions: 576 h, read-out: GI
[29] = system: Amaranthus retroflexus; experiment: Post-emergence herbicidal activity against one-leaf stage Amaranthus retroflexus under greenhouse condition assessed as complete bleaching of leaves at 150 g /ha measured after 24 days by spray method; assay type: functional, organism-based
[30] = system: Amaranthus retroflexus; experiment: Post-emergence herbicidal activity against one-leaf stage Amaranthus retroflexus under greenhouse condition at 7.5 g /ha measured after 24 days by spray method; assay type: functional; conditions: 576 h, read-out: GI
[31] = system: Amaranthus retroflexus; experiment: Post-emergence herbicidal activity against one-leaf stage Amaranthus retroflexus under greenhouse condition at 15 g /ha measured after 24 days by spray method; assay type: functional; conditions: 576 h, read-out: GI
[32] = system: Amaranthus retroflexus; experiment: Post-emergence herbicidal activity against one-leaf stage Amaranthus retroflexus under greenhouse condition assessed as complete bleaching of leaves at 60 g /ha measured after 24 days by spray method; assay type: functional, organism-based
[33] = system: Spirodela polyrhiza; experiment: Bleaching herbicidal activity in Spirodela polyrhiza fronds cultured in compound-containing in medium assessed as chlorophyll inhibition at 1 ug/ml after 7 days; assay type: functional; conditions: 168 h
[34] = system: Amaranthus retroflexus; experiment: Pre-emergence herbicidal activity against Amaranthus retroflexus under greenhouse condition at 750 g /ha measured after 24 days by spray method; assay type: functional; conditions: 576 h, read-out: GI
[35] = system: Brassica rapa subsp. oleifera; experiment: Post-emergence herbicidal activity against one-leaf stage Brassica rapa subsp. oleifera under greenhouse condition at 600 g /ha measured after 24 days by spray method; assay type: functional; conditions: 576 h, read-out: GI
[36] = system: Amaranthus retroflexus; experiment: Post-emergence herbicidal activity against one-leaf stage Amaranthus retroflexus under greenhouse condition at 600 g /ha measured after 24 days by spray method; assay type: functional; conditions: 576 h, read-out: GI
[37] = system: Brassica rapa subsp. oleifera; experiment: Post-emergence herbicidal activity against one-leaf stage Brassica rapa subsp. oleifera under greenhouse condition assessed as complete bleaching of leaves at 150 g /ha measured after 24 days by spray method; assay type: functional, organism-based
[38] = system: Echinochloa crus-galli; experiment: Post-emergence herbicidal activity against one-leaf stage of Echinochloa crus-galli (barnyard grass) under greenhouse condition at 750 g /ha measured after 24 days by spray method; assay type: functional; conditions: 576 h, read-out: GI
[39] = system: Amaranthus retroflexus; experiment: Post-emergence herbicidal activity against one-leaf stage Amaranthus retroflexus under greenhouse condition at 60 g /ha measured after 24 days by spray method; assay type: functional; conditions: 576 h, read-out: GI
[40] = system: Amaranthus retroflexus; experiment: Post-emergence herbicidal activity against one-leaf stage Amaranthus retroflexus under greenhouse condition assessed as complete bleaching of leaves at 600 g /ha measured after 24 days by spray method; assay type: functional, organism-based
[41] = system: Brassica rapa subsp. oleifera; experiment: Post-emergence herbicidal activity against one-leaf stage Brassica rapa subsp. oleifera under greenhouse condition assessed as complete bleaching of leaves at 75 g /ha measured after 24 days by spray method; assay type: functional, organism-based
[42] = system: Amaranthus retroflexus; experiment: Post-emergence herbicidal activity against one-leaf stage Amaranthus retroflexus under greenhouse condition at 30 g /ha measured after 24 days by spray method; assay type: functional; conditions: 576 h, read-out: GI

Cc1cc(-c2cccc(C(F)(F)F)c2)c(Oc2ccc(Br)cc2)nn1
inhibition of growth at 300 g/ha [1]: 100%
Activity [2]: Active
inhibition of growth at 150 g/ha [3]: 100%
Activity [4]: Active
inhibition of growth at 750 g/ha [5]: 93%
inhibition of growth at 7.5 g/ha [6]: 68%
Activity [7]: Active
Activity [8]: Active
inhibition of growth at 75 g/ha [9]: 100%
inhibition of growth at 750 g/ha [10]: 100%
inhibition at 10 µg/mL [11]: 90%
inhibition of growth at 15 g/ha [12]: 94%
inhibition of growth at 150 g/ha [13]: 100%
inhibition of growth at 750 g/ha [14]: 64%
Activity [15]: Active
Activity [16]: Active
inhibition of growth at 750 g/ha [17]: 60%
inhibition of growth at 30 g/ha [18]: 100%
Activity [19]: Active
inhibition of growth at 75 g/ha [20]: 88%
inhibition of growth at 60 g/ha [21]: 100%
inhibition of growth at 750 g/ha [22]: 94%
Activity [23]: Active
inhibition of growth at 750 g/ha [24]: 61%
Activity [25]: Active
Activity [26]: Active
Activity [27]: Active
inhibition of growth at 300 g/ha [28]: 100%
Activity [29]: Active
inhibition of growth at 7.5 g/ha [30]: 25%
inhibition of growth at 15 g/ha [31]: 28%
Activity [32]: Active
inhibition at 1 µg/mL [33]: 80%
inhibition of growth at 750 g/ha [34]: 94%
inhibition of growth at 600 g/ha [35]: 100%
inhibition of growth at 600 g/ha [36]: 100%
Activity [37]: Active
inhibition of growth at 750 g/ha [38]: 60%
inhibition of growth at 60 g/ha [39]: 51%
Activity [40]: Active
Activity [41]: Active
inhibition of growth at 30 g/ha [42]: 35%

Cc1cc(-c2cccc(C(F)(F)F)c2)c(Oc2ccc(Cl)c(Cl)c2)nn1
inhibition of growth at 300 g/ha [1]: 100%
Activity [2]: Active
inhibition of growth at 150 g/ha [3]: 100%
Activity [4]: Active
inhibition of growth at 750 g/ha [5]: 100%
inhibition of growth at 7.5 g/ha [6]: 58%
Activity [7]: Active
Activity [8]: Active
inhibition of growth at 75 g/ha [9]: 100%
inhibition of growth at 750 g/ha [10]: 100%
inhibition at 10 µg/mL [11]: 96%
inhibition of growth at 15 g/ha [12]: 89%
inhibition of growth at 150 g/ha [13]: 100%
inhibition of growth at 750 g/ha [14]: 6%
Activity [15]: Active
Activity [16]: Active
inhibition of growth at 750 g/ha [17]: 19%
inhibition of growth at 30 g/ha [18]: 100%
Activity [19]: Active
inhibition of growth at 75 g/ha [20]: 85%
inhibition of growth at 60 g/ha [21]: 100%
inhibition of growth at 750 g/ha [22]: 100%
Activity [23]: Active
inhibition of growth at 750 g/ha [24]: 27%
Activity [25]: Active
Activity [26]: Active
Activity [27]: Active
inhibition of growth at 300 g/ha [28]: 100%
Activity [29]: Active
inhibition of growth at 7.5 g/ha [30]: 32%
inhibition of growth at 15 g/ha [31]: 34%
Activity [32]: Active
inhibition at 1 µg/mL [33]: 93%
inhibition of growth at 750 g/ha [34]: 0%
inhibition of growth at 600 g/ha [35]: 100%
inhibition of growth at 600 g/ha [36]: 100%
Activity [37]: Active
inhibition of growth at 750 g/ha [38]: 87%
inhibition of growth at 60 g/ha [39]: 47%
Activity [40]: Active
Activity [41]: Active
inhibition of growth at 30 g/ha [42]: 42%

From ChEMBL document CHEMBL3045111, “Synthesis and herbicidal activities of novel 3-(substituted benzyloxy or phenoxy)-6-methyl-4-(3-trifluoromethylphenyl)pyridazine derivatives” (2012)
